Earlier results as cited in US12004545B2, “Infant nutrition delivering metabolic benefits” (SOCIÉTÉ DES PRODUITS NESTLÉ S.A., priority 2016, dated 2024).

Details: value used in the GL calculation

## OC[C@H]1O[C@@H](O[C@H]2[C@H](O)[C@@H](O)C(O)O[C@@H]2CO)[C@H](O)[C@@H](O)[C@H]1O (some centres unmarked) [lactose]
  GI of ingredient (available CHO): 46

## OC[C@H]1O[C@@](CO)(O[C@H]2O[C@H](CO)[C@@H](O)[C@H](O)[C@H]2O)[C@@H](O)[C@@H]1O [sucrose]
  GI of ingredient (available CHO): 68
